Common to all, as to assay: NCI tumour cell line growth inhibition, 48 h
Test [1] concerns MOLT-4 leukemia.
Test [2] relates to SK-MEL-5 melanoma.
For test [3], the system named is NCI-H522 lung.
The subject of test [4] is ACHN renal.
The test system of test [5] is OVCAR-5 ovarian.
The subject of test [6] is HT29 colon.
In test [7] the test system is SK-OV-3 ovarian.
Test [8] deals with PC-3 prostate.
The test system of test [9] is UO-31 renal.
For test [10], the system named is DU-145 prostate.

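All cell lines were grown in 96-well plates and treated with compound for 48 hours. The concentration for 50% growth inhibition is given as GI50. The concentration for full growth arrest is given as TGI.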

For the compound `CCN1CCC(CC(=O)Nc2n[nH]c3nc(-c4cccs4)c(Br)cc23)CC1`, the GI50 is 9.07 µM in [1]; 6.37 µM in [2]; 6.74 µM in test [3]; 7.96 µM in test [4]; 15.9 µM in [5]; 4.47 µM in test [6]. In addition, the GI50 in test [7] is 9.24 µM; in test [8], 10.4 µM; in test [9], 9.05 µM; in test [10] it was 8.5 µM. In addition, the TGI in [1] is 24.5 µM; in test [2], greater than 14.6 µM; in test [3], greater than 16.8 µM; in test [4], greater than 25 µM; in test [5], greater than 25 µM; in [6] it was 11.1 µM. The TGI in [7], in test [8], in [9] and in test [10] was greater than 25 µM throughout.

As to `O=C(/C=C\c1ccc2ccccc2n1)c1cc(Cl)ccc1O`, the GI50 was 3.12 µM in test [1]; 13.4 µM in [2]; 2.88 µM in [3]; 8.32 µM in [4]; 14.3 µM in test [5]; 4.2 µM in test [6]. In addition, the GI50 in test [7] is 61.4 µM; in test [8] it was 6.47 µM; in test [9], 4.33 µM; in test [10], 5.81 µM. For the same compound, the TGI was found to be 24.1 µM in test [1]; 37.5 µM in [2]; 16 µM in [3]; 21.4 µM in test [4]; 30.5 µM in test [5]; 31.5 µM in test [6]. Also, the TGI in test [7] is greater than 100 µM; in [8], 38.2 µM; in [9], 17.8 µM; in test [10], 19.4 µM.

As to `COc1cc2c(cc1OC)-c1c(c3ccc([N+](=O)[O-])cc3c(=O)n1CCCN)C2=O`, the GI50 in [1] is 0.165 µM; in test [2] it was 2.5 µM; in test [3], 0.0615 µM; in [4], 0.242 µM; in test [5] it was 3.46 µM; in test [6] it was 0.531 µM. In addition, the GI50 in test [7] was 8.81 µM; in test [8], 6.1 µM; in test [9], 0.351 µM; in test [10], 0.684 µM. The TGI in test [1] amounted to 1.6 µM; in test [2], 8.47 µM; in test [3] it was 4.22 µM; in test [4], 4.04 µM; in test [5], 9.54 µM; in test [6], 1.12 µM. Further, the TGI in test [7] is 20.2 µM; in test [8] it was 12.3 µM; in [9] it was 3.59 µM; in [10], 1.37 µM.

On to `COc1ccc(C(=O)CC(c2ccc(OC)c(OC)c2)c2c(O)c3ccccc3oc2=O)cc1OC` (centres undefined), for which the TGI in [1], in test [2], in test [3], in test [4], in test [5] and in test [6] was greater than 100 µM throughout. Further, the TGI in test [7], in [8], in test [9] and in test [10] was greater than 100 µM in each case.

For the compound `CC1(C)Cc2c(Br)c(Br)c(Br)c(OCC(O)CN3CCOCC3)c2O1` (centres undefined), the GI50 in [1] is 3.15 µM; in test [2] it was 10.2 µM; in [3], 12.4 µM; in test [4] it was 15.1 µM; in test [5] it was 14.8 µM; in [6], 3.73 µM. Moreover, the GI50 in test [7] was 15.9 µM; in [8], 7.93 µM; in test [9], 12.8 µM; in test [10], 13.4 µM. In addition, the TGI was 14.1 µM in [1]; 22 µM in test [2]; 26.7 µM in test [3]; 28.7 µM in [4]; 28.8 µM in test [5]; 19 µM in [6]. For the same compound, the TGI in test [7] stood at 29.6 µM; in test [8], 20.7 µM; in test [9], 27.4 µM; in test [10] it was 26.2 µM.

For `Cc1ccc2[nH]c(C(=O)NN3C(=O)C(C)SC34CCCCC4C)c(-c3ccccc3)c2c1` (centres undefined), the GI50 in [1] was 12.2 µM; in test [2] it was 16 µM; in [3], 2.4 µM; in test [4] it was 17.3 µM; in [5] it was 20.3 µM; in test [6], 15.5 µM. The GI50 in test [7] was 37.9 µM; in [8], 15.3 µM; in test [9], 16.8 µM; in test [10] it was 21.7 µM. The TGI is 41 µM in test [1]; 33.5 µM in [2]; 16.7 µM in test [3]; 36.6 µM in test [4]; 40.3 µM in test [5]; 39.3 µM in [6]. The TGI in test [7] is greater than 100 µM; in [8], 37.6 µM; in test [9], 32.6 µM; in test [10] it was 50.7 µM.

Turning to `Cc1ccc(C[P+](c2ccccc2)(c2ccccc2)c2ccccc2)cc1`, the GI50 is 2.44 µM in test [1]; 0.321 µM in [2]; 0.75 µM in test [3]; 5.94 µM in test [4]; 1.93 µM in test [5]; 0.427 µM in test [6]. In addition, the GI50 in test [7] is 2.57 µM; in test [8] it was 0.997 µM; in [9], 6.08 µM; in test [10], 1.38 µM. In addition, the TGI in test [1] was greater than 21.7 µM; in [2], 1.27 µM; in [4], greater than 74.9 µM; in [5], greater than 25.2 µM; in test [6], greater than 41.6 µM; in test [7], greater than 26.6 µM. The TGI in test [8] is greater than 100 µM; in test [9] it was 39.4 µM; in [10], 43.4 µM.

Consider `CC(C)=CC1CC(C)C2(CCC3(C)CC4C(C(=O)CC4(C)O)/C(C=O)=C\CC32)O1` (centres undefined), for which the TGI was determined as 0.0483 µM in [1]; 0.588 µM in test [2]; 0.097 µM in test [3]; 0.115 µM in test [4]; 0.33 µM in test [5]; 0.102 µM in [6]. Besides, the TGI in [7] was 0.297 µM; in [8], 0.14 µM; in [9], 0.0989 µM; in test [10], 0.267 µM.

For `CN(C)S(=O)(=O)c1ccc(Nc2ccc(O)c3c2C(=O)c2c([N+](=O)[O-])ccc(O)c2C3=O)cc1`, the TGI in [1], in test [2], in test [3], in test [4], in test [5] and in test [6] was greater than 100 µM throughout. Moreover, the TGI in [7], in test [8], in test [9] and in [10] was greater than 100 µM in each case.

`O=C1CC/C(=C\COc2ccc3ccc(=O)oc3c2)O1`: the GI50 in test [1] is 6.41 µM; in test [2] it was 14.5 µM; in test [3] it was 1.76 µM; in test [4], 0.386 µM; in [5] it was 17.3 µM; in [6], 3.04 µM. Further, the GI50 in [7] was 27.8 µM; in [8] it was 1.68 µM; in test [9], 6.41 µM; in [10], 1.89 µM. For the same compound, the TGI in test [1] was greater than 100 µM; in [2], 32.7 µM; in [3], 5.83 µM; in test [4], 2.02 µM; in test [5] it was 34.8 µM; in test [6], 17.3 µM. Besides, the TGI is greater than 100 µM in test [7], 18.3 µM in [8], 21.4 µM in test [9] and 14.1 µM in test [10].

Regarding `COc1cc2ncn(-c3cc(OCc4ccccc4S(C)(=O)=O)c(C#N)s3)c2cc1OC`, the GI50 in test [1], in [2], in [3], in [4], in [5] and in test [6] was greater than 25 µM each time. The GI50 in [7] is greater than 16.1 µM; in [8], greater than 25 µM; in test [9], greater than 25 µM; in [10], greater than 25 µM. Besides, the TGI in test [1], in test [2], in test [3], in [4], in [5] and in test [6] was greater than 25 µM each time. Also, the TGI in test [7], in [8], in [9] and in test [10] was greater than 25 µM in each case.

Turning to `CN1CCC(n2[nH]c(-c3ccccc3)c(Cc3ccccc3)c2=O)CC1`, the TGI in test [1] is 89.7 µM; in [2], greater than 100 µM; in test [3], greater than 100 µM; in [4], greater than 100 µM; in [5] it was greater than 100 µM; in test [6] it was greater than 100 µM. Also, the TGI in [7], in test [8], in test [9] and in test [10] was greater than 100 µM in each case.

Take `COc1cc(-c2n/c(=C\c3c(O)[nH]c4ccccc34)cc3c2=Nc2ccccc2-3)cc(OC)c1OC`: the GI50 is 0.528 µM in [1]; 0.289 µM in test [2]; 0.247 µM in test [3]; 1.11 µM in test [4]; 4.32 µM in test [5]; 0.407 µM in [6]. The GI50 in [7] was 4.58 µM; in test [8] it was 2.19 µM; in test [9], 2.5 µM; in test [10], 1.12 µM. In addition, the TGI was 7.34 µM in test [1]; 2.88 µM in test [2]; 0.664 µM in test [3]; greater than 100 µM in test [4]; greater than 100 µM in test [5]; 2.53 µM in test [6]. In addition, the TGI in test [7], in test [8], in test [9] and in [10] was greater than 100 µM each time.

Turning to `c1cncc(CNc2ncn[nH]2)c1`, the TGI in test [1], in test [2], in test [3], in [4], in [5] and in test [6] was greater than 100 µM in each case. For the same compound, the TGI in test [7], in test [8], in [9] and in test [10] was greater than 100 µM each time.

With `O=[N+]([O-])c1ccc(N=Nc2c(O)[nH]c3ccccc23)cc1`, the TGI is greater than 100 µM in test [1]; greater than 77.3 µM in test [2]; 34.6 µM in test [3]; 26.3 µM in test [4]; greater than 63.1 µM in test [5]; greater than 100 µM in test [6]. In addition, the TGI in test [7] was 65.3 µM; in [8], greater than 100 µM; in test [9], 39.3 µM; in [10], 36.4 µM.

Consider `COC(=O)[C@]12CC=C3O[C@@H]4OC5(CCCCC5)O[C@@H]4[C@H]3C1C(=O)C=CC2=O` (some centres undefined), for which the TGI was 21.4 µM in test [1]; 32.8 µM in [2]; 15.4 µM in [3]; 32.6 µM in test [4]; 38.8 µM in [5]; 34.6 µM in test [6]. The TGI in [7] was 48.7 µM; in [8] it was 52.3 µM; in [9] it was 30.8 µM; in [10], 47.2 µM.

`Cc1cc2nc3c4cccc(O)c4n(CCN(C)C)c3nc2cc1C`: the GI50 in test [1] is 0.443 µM; in test [2], 1.67 µM; in test [3], 2.15 µM; in [4], 1.09 µM; in [5], 2.97 µM; in test [6], 2.81 µM. Besides, the GI50 in test [7] was 3.04 µM; in test [8], 1.88 µM; in test [9], 0.86 µM; in test [10], 2.96 µM. Besides, the TGI in test [1] stood at 8.98 µM; in test [2], 3.08 µM; in test [3], 6.49 µM; in [4] it was 3.18 µM; in test [5] it was 9.1 µM; in [6] it was 20 µM. Also, the TGI in test [7] was 14.6 µM; in test [8] it was 12.8 µM; in [9], 3.28 µM; in test [10] it was 8.79 µM.

`Oc1ccc(CN(Cc2ccc(C(F)(F)F)cc2)Cc2ccc(O)c3ncccc23)c2cccnc12`: the GI50 in test [1] is 0.0818 µM; in test [2], 0.0278 µM; in test [3], 0.0218 µM; in test [4], 0.0256 µM; in [5] it was 0.0736 µM; in [6], 0.0717 µM. The GI50 in test [7] is 0.0655 µM; in test [8], less than 0.0146 µM; in test [9] it was 0.0279 µM; in test [10], 0.0338 µM. Moreover, the TGI is greater than 100 µM in test [1]; 0.16 µM in test [2]; 0.588 µM in test [3]; greater than 100 µM in [4]; greater than 100 µM in test [5]; greater than 100 µM in test [6]. For the same compound, the TGI in [7] is greater than 48.3 µM; in test [8] it was greater than 100 µM; in test [9] it was 2.19 µM; in [10], greater than 100 µM.

Source of the values: PubChem BioAssay (NCI).
